# Bridge positions count the residues as written; N and C are the ends. Ends that are not written are not given here.
# How the values were obtained:
# [1] = tested on: Murine 3T3L1 preadipocytes; experiment: anti-phage immunofluorescence, uptake by negative control cells; assay type: cell-based
# Description: (§1) Immunofluorescence for tissue and cell analysis: Immunofluorescence on cells and formalin-fixed paraffin-embedded tissue sections was performed as described Zhang et al., 2012). Primary antibodies used: rabbit anti-Fd bacteriophage (Sigma Aldrich, 1:500), rabbit anti-Asp175-cleaved Caspase3 (Cell Signaling Technology, 1:100), mouse anti-E Cadherin and mouse anti-N Cadherin (BD Biosciences, 1:100). Secondary antibodies used: donkey Alexa 488-conjugated IgG (Invitrogen, 1:300) and Cy3-conjugated IgG (Jackson ImmunoResearch, 1:300). Biotinylated peptide internalization was visualized with Cy3-conjugated streptavidin IgG (Thermo Fischer Scientific, 1:50). Nuclei were stained with Hoechst 33258 (Invitrogen, 1:2000). Tissue and cell images were acquired with a Nikon Eclipse TE2000E Widefield Fluorescence Microscope (Nikon Instruments Inc.). Image quantification included 5 random microscopic fields of view at 20× magnification. Images were processed and analyzed with ImageJ software (NIH and University of Wisconsin). Cadherin co-localization was quantified based on the previously described ImageJ software object based-approach (JACoP) methodology based on the Mander's coefficient (Bolte and Cordelieres, 2006).
# (§2) Murine 3T3L1 preadipocytes were used as a negative control and uptake was not observed for BLMP6-phage (FIG. 1C).
# [2] = phage localization in cancer-free mice; settings: mouse, in vivo
# Description: as §1
# (§3) Tissue biodistribution was analyzed by immunofluorescence using phage-specific antibodies. […]
# [3] = tested on: 4T1.2 spontaneous metastases; experiment: in vivo homing of individual phage-peptide clones, 4T1.2 model; parameters: species or system Balb/c mice; settings: mouse
# Description: (§4) Animal experiments: Rodent studies were authorized by the Institutional Animal Care and Use Committees of UTHealth. Spontaneous cancer progression was modelled by injecting 2×10^4 4 T1.2 (mCherry+ Luciferase+) cells into the mammary fat pad of 10-week-old female Balb/c mice (Jackson Laboratory) with a 31-gauge needle. Primary tumor volume was measured weekly with calipers and calculated using the (length×width^2)/2 formula. At a tumor volume of ˜200 mm^3, mice were randomized into two cohorts and administered either vehicle (1×PBS) or cisplatin (Tocris Biosciences; 2.5 mg/kg) retro-orbitally once a week for three weeks. Metastatic progression was monitored with bioluminescence imaging. For experimental metastasis modeling in C57BL/6 mice (Jackson Laboratory), 1×10^5 B16F10 cells were intravenously injected into the tail vein and mice were used after 2 weeks. In both mice models, pulmonary metastases were observed 3 weeks post implantation. The screen for metastasis-homing peptides was performed using a 50:50 mixture of phage cyclic peptide libraries CX7C and CX8C (C: cysteine; X: any amino acid residue) provided by Erkki Koivunen (Arap et al., 2002). For every bio-panning round, a mouse with metastases (between weeks 3 and 4) was intravenously injected with 10^10 transducing units (TU) of the library. After 3 hours of circulation, the heart was perfused with 10 ml phosphate buffered saline (PBS). […] Selected phage were amplified through K91 E. coli infection and quantified via TU counting. For each round, clone enrichment was quantified based on recovery frequency among 96 phage peptide-coding inserts sequenced from PCR-amplified phage DNA (Kolonin et al., 2004). […] Radioactive uptake was measured using a Cobra II automated gamma counter (Packard) and expressed as percentage of the injected dose per gram tissue (% ID/g tissue).
# Immunofluorescence for tissue and cell analysis: Immunofluorescence on cells and formalin-fixed paraffin-embedded tissue sections was performed as described Zhang et al., 2012). […] Tissue and cell images were acquired with a Nikon Eclipse TE2000E Widefield Fluorescence Microscope (Nikon Instruments Inc.). Image quantification included 5 random microscopic fields of view at 20× magnification. Images were processed and analyzed with ImageJ software (NIH and University of Wisconsin). Cadherin co-localization was quantified based on the previously described ImageJ software object based-approach (JACoP) methodology based on the Mander's coefficient (Bolte and Cordelieres, 2006).
# as §3
# [4] = tested on: mCherry-positive metastatic tumor cells (4T1.2); experiment: in vivo bio-panning of CX7C/CX8C phage-peptide library for lung metastasis-homing peptides; parameters: species or system Balb/c mice; settings: p≤0.0001
# Description: as §4, with “implantation.” for “implantation. The screen for metastasis-homing peptides was performed using a 50:50 mixture of phage cyclic peptide libraries CX7C and CX8C (C: cysteine; X: any amino acid residue) provided by Erkki Koivunen (Arap et al., 2002). For every bio-panning round, a mouse with metastases (between weeks 3 and 4) was intravenously injected with 10^10 transducing units (TU) of the library. After 3 hours of circulation, the heart was perfused with 10 ml phosphate buffered saline (PBS).”, “tissue). […]” for “tissue).”
# [5] = tested on: MDA-MB-231 human TNBC cells; experiment: phage-peptide clone binding to human TNBC cells; assay type: cell-based; settings: phage-displayed
# Text: as §2
# [6] = tested on: 4T1, B16F10 and MDA-MB-231 cancer cells that expressed N-cadherin but not E-cadherin; experiment: co-localization with cadherins in cultured cell lines; assay type: cell-based, murine, human; settings: reduced E-Cadherin expression
# Description: Cell lines and primary cell culture: All cell lines were cultured in DMEM media (Hyclone) supplemented with penicillin-streptomycin (Gibco) and 10% fetal bovine serum (Atlas Biologicals). B16F10, MDA-MB-231, and 3T3L1 cell lines were from ATCC. 4T1.2 (4T1) cells expressing mCherry and Luciferase were a gift from S. Mani. Cisplatin-resistant 4T1.2 (4T1.2-CTX) cells were generated after treatment with cisplatin (Tocris Biosciences, 180 ng/mL).
# as §1, with “Secondary antibodies used: donkey Alexa 488-conjugated IgG (Invitrogen, 1:300) and Cy3-conjugated IgG (Jackson ImmunoResearch, 1:300). Biotinylated peptide internalization was visualized with Cy3-conjugated streptavidin IgG (Thermo Fischer Scientific, 1:50). Nuclei were stained with Hoechst 33258 (Invitrogen, 1:2000).” left out, “2006). […]” for “2006).”
# [7] = tested on: 4T1, B16F10 and MDA-MB-231 tumor cell lines; experiment: trypan blue exclusion assay, tumor cell lines; assay type: cell-based, murine, human; settings: 0.1 mM
# Description: Peptides: The exemplary Hunter-killer (HK) peptides HK-BLMP5 and HK-BLMP6 were generated as “all-D-amino acid” cysteine-cyclized peptides (Celtek Bioscience). The proteolysis-resistant peptides were synthesized as acetate salts with an amino-hexanoic acid linker (NH—(CH2)5—CO) conjugating the BLMP and the apoptotic moiety KLAKLAKKLAKLAK (KLAKLAK2): SEQ ID NO:13. Following chromatographic purification, peptides were dissolved in PBS into 10 mM aliquots and stored frozen until further use. For the homing/internalization assay, peptides were biotin-labelled using the Sulfo-NHS-LC-Biotin Kit (APExBIO). Cells were plated in 24 well plates (1×10^5 cells/well), treated. Following treatment with either HK-BLMP6 (0.1 mM) or HK-BLMP5 (0.3 mM) in 0.5 ml serum free culture media for 8 hours, cells were stained with 0.4% Trypan Blue solution (MP Biomedicals) (Daquinag et al., 2016). For radioactive studies, 1,4,7,10-[…]-N′,N″,N′″,N″″-tetra-acetic acid (DOTA) t-Bu ester was purchased from Macrocyclics (Dallas, TX) and peptides were synthesized by Bachem Americas (Torrance, CA). DOTA-peptide conjugation was performed on solid-phase using previously described protocols (Azhdarinia et al., 2011). Radiolabeling with ^67GaCl3 and HPLC determination of purity were performed according to published procedures (Hernandez Vargas et al., 2019). […]
sequence,measurement,setting,value
CEGPMYAKC (disulfide 1-9 (inferred)) [BLMP3],non-specific uptake by 3T3L1 cells compared to phage-displayed BLMP6,[1],higher non-specific uptake
CGVLPYSLC (disulfide 1-9 (inferred)) [BLMP1],non-specific uptake by 3T3L1 cells compared to phage-displayed BLMP6,[1],higher non-specific uptake
CHLSFSTAC (disulfide 1-9 (inferred)) [BLMP4],non-specific uptake by 3T3L1 cells compared to phage-displayed BLMP6,[1],higher non-specific uptake
CLRHSSKIC (disulfide 1-9 (inferred)) [BLMP5],localization to lungs in cancer-free mice,[2],lack of BLMP-phage localization to lungs
same,distribution within primary 4T1.2 tumor,[3],dispersed throughout the tumor
same,localization within macro-metastases,[3],localized predominantly along the invasive edges
same,enrichment in the last round of bio-panning,[4],most significant enrichment
same,binding to MDA-MB-231 cells,[5],exhibited binding
same,non-specific uptake by 3T3L1 cells compared to phage-displayed BLMP6,[1],higher non-specific uptake
CRAGVGRGC (disulfide 1-9 (inferred)) [BLMP6],localization to lungs in cancer-free mice,[2],lack of BLMP-phage localization to lungs
same,distribution within primary 4T1.2 tumor,[3],observed selectively in a sub-population of cells associated with the vasculature
same,localization within macro-metastases,[3],abundant throughout
same,enrichment in the last round of bio-panning,[4],most significant enrichment
same,binding to cisplatin-resistant 4T1.2 cells,[6],maintaining BLMP6 binding
same,binding to MDA-MB-231 cells,[5],exhibited binding
CSGVGIASC (disulfide 1-9 (inferred)) [BLMP2],non-specific uptake by 3T3L1 cells compared to phage-displayed BLMP6,[1],higher non-specific uptake
"KLAKLAKKLAKLAK [KLAKLAK2, untargeted apoptosis-inducing moiety]",cell death (trypan blue),[7],No cancer cell death

# From patent US12465650B2, “Methods and compositions for targeting cancer cells in metastases” (THE BOARD OF REGENTS OF THE UNIVERSITY OF TEXAS SYSTEM, priority 2021, dated 2025)
